# According to paper PMC9151520 (Archives of Toxicology, 2022):
# Where “and” joins values, the source holds several entries; their conditions need not be identical. Identical values can stand only once. Like-named read-outs stand apart in the source and are kept apart here.
# Legend:
# [1] = system: p53 signaling (p53RE-bla HCT-116 cells); assay: cells; assay type: cell-based
# [2] = system: p53 signaling (p53RE-bla HCT-116 cells); assay: cells; assay type: cell-based; remark: listed apart in the source
# [3] = system: p53 signaling (p53RE-bla HCT-116 cells); assay: cells; assay type: cell-based; design: efficacy: unit not given here; conditions: for Emax: HCT-116, read-out: efficacy
# [4] = system: p53 signaling (p53RE-bla HCT-116 cells)
# [5] = system: p53 signaling (p53RE-bla HCT-116 cells); remark: listed apart in the source
# [6] = rat, microsomes, pH 7.4
# [7] = rat
# [8] = system: p53 signaling (p53RE-bla HCT-116 cells); assay: cells; conditions: Homo sapiens
# [9] = system: p53 signaling (p53RE-bla HCT-116 cells); assay: cells; conditions: Homo sapiens; remark: listed apart in the source
# in vitro = conditions: male, Sprague Dawley, rat, microsomes, pH 7.4
# [10] = read-out: p53 activation EC50, RLM
# [11] = HCT-116, read-out: p53 activation EC50, RLM
# [12] = HCT-116, read-out: p53 activation EC50, HLM
# [13] = HCT-116, read-out: p53 activation efficacy, primary screening
Structure (SMILES),EC50 [2],"p53 activation EC50, No MS [1]","p53 activation Efficacy, No MS [1]","EC50 ([3]; Homo sapiens, HCT-116) [µM]",activity outcome in p53-bla assay [4],"EC50 [4, 10] [µM]","p53 activation EC50, HLM [5]","Viability EC50, HLM (p53RE-bla HCT-116 cells)","Viability EC50, No MS (p53RE-bla HCT-116 cells)","Viability EC50, RLM (p53RE-bla HCT-116 cells)","Viability Efficacy, HLM (p53RE-bla HCT-116 cells)","Viability Efficacy, No MS (p53RE-bla HCT-116 cells)","Viability Efficacy, RLM (p53RE-bla HCT-116 cells)",Depletion after 16 h of incubation with cells [7] [%],EC50 ([8]; HCT-116) [µM],"Emax ([8]; HCT-116, read-out: efficacy) [%]","EC50 [8, 11] [µM]","EC50 [9, 12] [µM]",half-life (in vitro) [min],"EC50 ([2]; Homo sapiens, HCT-116, 0.5 h) [µM]",also measured
Cc1cc(=O)oc2cc(O)ccc12.O [4-Methylumbelliferone hydrate],Inactive,,,,,,,,,,,,,,,,,,,,"EC50, p53 activation, cherry pick confirmation [1]: inactive; EC50, p53 activation, primary screening [1]: inactive; Efficacy, p53 activation, cherry pick confirmation [1]: inactive; Efficacy, p53 activation, primary screening [1]: inactive; efficacy [3]: 25.18 ± 1.7 ( 100.84 ± 7.34 ) %; EC50 ([3]; read-out: EC50): 25.2 µM; EC50 [4]: 23.3 µM; EC50 ([4]; read-out: EC50, p53 activation, cherry pick confirmation): 25.7 µM; EC50 ([4]; read-out: EC50, p53 activation, primary screening): 33.4 µM; EC50, p53 activation, cherry pick confirmation [5]: inactive; EC50, p53 activation, primary screening [5]: inactive; EC50, viability, cherry pick confirmation (p53RE-bla HCT-116 cells): inactive; EC50, viability, primary screening (p53RE-bla HCT-116 cells): inactive; Efficacy, viability, cherry pick confirmation (p53RE-bla HCT-116 cells): inactive; Efficacy, viability, primary screening (p53RE-bla HCT-116 cells): inactive; Microsome stability Half-life without cells [6]: 26.74 ± 0.98 min"
CCOP(=S)(OCC)Oc1nc(Cl)c(Cl)cc1Cl [Chlorpyrifos],Inactive,inactive,inactive,3.75,activator of p53 signaling,2.8,inactive,inactive,inactive,inactive,inactive,inactive,inactive,92.74 ± 1.38,3.47,50.6,2.92,1.78,1.11 ± 0.07,,activity outcome in p53-bla assay [1]: inactive; Emax ([3]; Homo sapiens): 45.2%
CCOC(=O)c1cn2nc(OP(=S)(OCC)OCC)cc2nc1C [Pyrazophos],,inactive,inactive,0.79,,0.877,inactive,inactive,inactive,inactive,inactive,inactive,inactive,88.65 ± 0.14,0.7,32.7,0.765,3.67,2.29 ± 0.71,41,
CCOP(=S)(OCC)SCSC(C)(C)C [Terbufos],Inactive,,,1.12,induce p53 signaling,,,,,,,,,98.65 ± 1.08,2.81,62.7,,,1.12 ± 0.2,,"p53 activation EC50, cherry pick confirmation [1]: inactive; p53 activation EC50, primary screening [1]: inactive; p53 activation efficacy, cherry pick confirmation [1]: inactive; p53 activation efficacy, primary screening [1]: inactive; Emax ([3]; Homo sapiens): 53.9%; p53 activation EC50, cherry pick confirmation [5]: inactive; p53 activation efficacy, cherry pick confirmation [5]: inactive; Viability EC50, cherry pick confirmation (p53RE-bla HCT-116 cells): inactive; Viability EC50, primary screening (p53RE-bla HCT-116 cells): inactive; Viability efficacy, cherry pick confirmation (p53RE-bla HCT-116 cells): inactive; Viability efficacy, primary screening (p53RE-bla HCT-116 cells): inactive; EC50 ([8]; HCT-116, read-out: p53 activation EC50, cherry pick confirmation): 1.32 µM; Emax ([8]; HCT-116, read-out: p53 activation efficacy, cherry pick confirmation): 54.3%; Emax [8, 13]: 37.5%; Emax [9, 13]: 37.6%"
CCOP(=O)(OCC)OC(=CCl)c1ccc(Cl)cc1Cl [Chlorfenvinphos],,inactive,inactive,2.54,,2.08,inactive,inactive,inactive,inactive,inactive,inactive,inactive,55.04 ± 4.69,6.36,66.8,3.8,3.05,28.6 ± 1.85,0.02,
CCNP(=S)(OC)O/C(C)=C/C(=O)OC(C)C (stereo not drawn) [Propetamphos],,,,2.59,,,,,,,,,,91.32 ± 1.7,3.05,88.6,,,> 120,2,"p53 activation EC50 [1]: inactive; p53 activation efficacy [1]: inactive; p53 activation efficacy [4]: 78.66 and 99.2667; p53 activation EC50 [5]: inactive; Viability EC50 (p53RE-bla HCT-116 cells): inactive; Viability efficacy (p53RE-bla HCT-116 cells): inactive; EC50 ([9]; HCT-116, read-out: p53 activation EC50): 0.731 µM; Emax ([9]; HCT-116, read-out: p53 activation efficacy): 39.9%"
CCOP(=S)(OCC)Oc1ccc2c(C)c(Cl)c(=O)oc2c1 [Coumaphos],Inactive,inactive,inactive,7.03,induce p53 signaling,,inactive,inactive,inactive,inactive,inactive,inactive,inactive,99.03 ± 0.34,5.95,,,0.891,0.88 ± 0.12,,Emax ([3]; Homo sapiens): 68.7%
Cc1ccccc1OP(=O)(Oc1ccccc1C)Oc1ccccc1C [Tri-o-cresyl phosphate],,inactive,inactive,3.14,,,inactive,inactive,inactive,inactive,inactive,inactive,inactive,93.36 ± 0.84,5.32,59.6,,1.12,1.17 ± 0.08,15.8,
COP(=S)(OC)Oc1ccc(S(=O)(=O)N(C)C)cc1 [Famphur],,inactive,inactive,3.1,,3.1,inactive,inactive,inactive,inactive,inactive,inactive,inactive,87.7 ± 3.02,2.46,73.6,3.12,2.02,10.8 ± 1.96,0.49,
COP(=S)(NC(C)C)Oc1ccc(C)cc1[N+](=O)[O-] (stereo not drawn) [Amiprofos-methyl],Inactive,,,,induce p53 signaling,,,,,,,,,,,,,,,,p53 activation EC50 [1]: inactive; p53 activation efficacy [1]: inactive; efficacy [3]: 4.48 ± 0.3 ( 100.11 ± 8.75 ) %; EC50 ([3]; read-out: EC50): 4.48 µM; EC50 [4]: 4.69 µM; p53 activation efficacy [4]: 84.8532 and 75.0867; p53 activation EC50 [5]: inactive; Viability EC50 (p53RE-bla HCT-116 cells): inactive; Viability efficacy (p53RE-bla HCT-116 cells): inactive; Microsome stability Half-life without cells [6]: 1.11 min
CCOP(=S)(OCC)SCCSCC [Disulfoton],Inactive,inactive,inactive,8.47,induce p53 signaling,3.97,inactive,inactive,inactive,inactive,inactive,inactive,inactive,93.89 ± 4.12,9.13,43.3,7.78,5.07,> 120,,Emax ([3]; Homo sapiens): 43.6%
CCOP(=S)(OCC)Oc1cc(-c2ccccc2)on1 [Isoxathion],,inactive,inactive,9.77,,,inactive,inactive,inactive,inactive,inactive,inactive,inactive,94.65 ± 0.45,8.62,46,,4.45,2.77 ± 0.25,27.5,
CCOP(=S)(Oc1cnc(C(C)(C)C)nc1)OC(C)C (stereo not drawn) [Tebupirimfos],,,,1.32,,,,,,,,,,94.85 ± 0.13,1.23,43.4,,,3.59 ± 0.08,2.17,p53 activation EC50 [1]: inactive; p53 activation efficacy [1]: inactive; p53 activation efficacy [4]: 42.005; EC50 ([4]; read-out: p53 activation EC50): 1.63 µM; p53 activation EC50 [5]: inactive; Viability EC50 (p53RE-bla HCT-116 cells): inactive; Viability efficacy (p53RE-bla HCT-116 cells): inactive
